PMC7745062 (Acta Pharmaceutica Sinica. B, 2020)
“Also recorded” adds a separate entry of the source.

What was measured:
PDE10A (449–770) = PDE10A (449–770) (Homo sapiens, UniProt Q9Y233); assay: In vitro enzymatic activity assay
[1] = Metabolic stability in rat liver microsomes; assay type: in vitro ADME; details: RLM t1/2 (elimination half-life)
[2] = Metabolic stability in rat liver microsomes; assay type: in vitro ADME; details: for half-life at 0.1 μmol/L: rat, pH 7.4
[3] = system: monocrotaline (MCT)-induced PAH rat model; assay: Monocrotaline; assay type: in vivo; details: for mean pulmonary artery pressure (mPAP) / right ventricle hypertrophy index (RVHI%) / wall thickness percentage (WT%): p.o. for 3 weeks, 14·3HCl 2.5 mg/kg, tadalafil 5.0 mg/kg, vs model group
PDE2A (580–919) = PDE2A (580–919) (Homo sapiens, UniProt O00408); assay: In vitro enzymatic activity assay, PDE2A
Sequence of PDE2A (580–919) (O00408 580-919): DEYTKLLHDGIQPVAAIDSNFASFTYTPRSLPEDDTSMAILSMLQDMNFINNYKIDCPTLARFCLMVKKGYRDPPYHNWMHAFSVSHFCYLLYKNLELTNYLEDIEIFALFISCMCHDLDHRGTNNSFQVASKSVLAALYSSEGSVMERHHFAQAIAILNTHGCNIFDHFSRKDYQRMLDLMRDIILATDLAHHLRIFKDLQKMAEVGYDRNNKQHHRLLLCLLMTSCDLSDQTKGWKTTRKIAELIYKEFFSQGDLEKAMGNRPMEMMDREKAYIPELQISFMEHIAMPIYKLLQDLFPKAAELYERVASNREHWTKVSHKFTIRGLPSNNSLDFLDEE

[4] = Reactivity with cysteine in aqueous phase; assay type: physicochemical; details: Cys ratio 1:1, 1H NMR in D2O against time
[5] = Solubility in deionized water; assay type: physicochemical; details: pH 7, water
PDE9A2 (181–506) = PDE9A2 (181–506) (Homo sapiens, UniProt O76083); assay: In vitro enzymatic activity assay, PDE9A2
Sequence of PDE9A2 (181–506) (O76083 241-566): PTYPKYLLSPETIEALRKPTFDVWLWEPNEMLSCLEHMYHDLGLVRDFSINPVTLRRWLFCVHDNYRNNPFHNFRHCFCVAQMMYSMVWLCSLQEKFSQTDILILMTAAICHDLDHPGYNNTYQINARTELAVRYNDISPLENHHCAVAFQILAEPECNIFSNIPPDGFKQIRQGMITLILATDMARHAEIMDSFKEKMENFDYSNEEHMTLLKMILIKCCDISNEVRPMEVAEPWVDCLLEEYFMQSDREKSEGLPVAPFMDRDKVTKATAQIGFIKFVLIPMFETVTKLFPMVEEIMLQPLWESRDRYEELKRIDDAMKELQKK

PDE4D2 (86–413) = PDE4D2 (86–413) (Homo sapiens, UniProt Q08499); assay: In vitro enzymatic activity assay, PDE4D2
Sequence of PDE4D2 (86–413) (Q08499 388-715): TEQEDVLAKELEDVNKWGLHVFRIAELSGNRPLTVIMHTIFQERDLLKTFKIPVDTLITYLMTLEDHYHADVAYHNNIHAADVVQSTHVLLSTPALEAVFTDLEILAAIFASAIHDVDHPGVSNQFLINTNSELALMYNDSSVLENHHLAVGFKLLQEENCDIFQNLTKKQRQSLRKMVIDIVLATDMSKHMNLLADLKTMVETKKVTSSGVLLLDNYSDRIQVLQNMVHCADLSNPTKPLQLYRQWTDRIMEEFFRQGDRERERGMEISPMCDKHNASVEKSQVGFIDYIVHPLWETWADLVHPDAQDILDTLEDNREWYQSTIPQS

[6] = target: T1, human ether-à-go-go-related gene (hERG) potassium channel (Homo sapiens, UniProt Q12809); assay: cell-based; details: hERG IC50, peak tail current inhibition, 2−3 cells per concentration
T1 sequence (Q12809 whole entry): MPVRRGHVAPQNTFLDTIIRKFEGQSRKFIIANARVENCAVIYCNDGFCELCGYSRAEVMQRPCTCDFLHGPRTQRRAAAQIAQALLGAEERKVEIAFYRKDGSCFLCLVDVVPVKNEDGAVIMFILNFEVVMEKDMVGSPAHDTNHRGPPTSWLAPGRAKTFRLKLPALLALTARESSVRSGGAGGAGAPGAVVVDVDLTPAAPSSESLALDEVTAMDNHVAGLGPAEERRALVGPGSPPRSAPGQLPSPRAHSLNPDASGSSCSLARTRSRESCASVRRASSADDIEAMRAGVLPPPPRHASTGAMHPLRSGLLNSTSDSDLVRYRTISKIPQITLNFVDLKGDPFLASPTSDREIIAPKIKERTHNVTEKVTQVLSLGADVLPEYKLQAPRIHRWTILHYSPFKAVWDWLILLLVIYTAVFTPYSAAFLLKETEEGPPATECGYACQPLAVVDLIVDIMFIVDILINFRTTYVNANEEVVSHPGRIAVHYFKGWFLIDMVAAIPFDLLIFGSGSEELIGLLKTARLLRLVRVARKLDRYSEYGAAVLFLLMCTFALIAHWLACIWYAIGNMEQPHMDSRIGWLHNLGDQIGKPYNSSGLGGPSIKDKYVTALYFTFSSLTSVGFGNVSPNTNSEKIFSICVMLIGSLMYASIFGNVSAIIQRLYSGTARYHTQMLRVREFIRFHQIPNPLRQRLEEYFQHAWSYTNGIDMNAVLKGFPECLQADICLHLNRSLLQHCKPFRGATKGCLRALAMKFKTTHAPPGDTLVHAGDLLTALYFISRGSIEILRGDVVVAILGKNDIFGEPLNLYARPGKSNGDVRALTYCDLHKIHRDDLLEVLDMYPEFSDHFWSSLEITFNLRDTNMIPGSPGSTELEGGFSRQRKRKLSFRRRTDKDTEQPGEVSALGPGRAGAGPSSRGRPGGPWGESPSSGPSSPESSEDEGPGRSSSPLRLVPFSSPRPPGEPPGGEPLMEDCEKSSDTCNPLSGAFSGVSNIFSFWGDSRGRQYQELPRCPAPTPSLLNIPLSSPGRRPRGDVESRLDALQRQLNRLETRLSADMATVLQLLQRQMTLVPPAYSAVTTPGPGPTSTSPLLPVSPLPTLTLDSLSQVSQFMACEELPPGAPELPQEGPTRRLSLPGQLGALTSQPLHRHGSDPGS

[7] = target: T1, human ether-à-go-go-related gene (hERG) potassium channel
[8] = In vivo pharmacokinetics of 14·3HCl in rats; set-up: species or system Sprague–Dawley rats
[9] = target: hERG potassium channel (versus PDE10A) (Homo sapiens, UniProt Q12809); assay: in vitro
KM mice = assay: Acute toxicity after single oral dose in mice; assay type: in vivo
PDE7A1 (130–482) = PDE7A1 (130–482) (Homo sapiens, UniProt Q13946); assay: In vitro enzymatic activity assay, PDE7A1
Sequence of PDE7A1 (130–482) (Q13946 130-482): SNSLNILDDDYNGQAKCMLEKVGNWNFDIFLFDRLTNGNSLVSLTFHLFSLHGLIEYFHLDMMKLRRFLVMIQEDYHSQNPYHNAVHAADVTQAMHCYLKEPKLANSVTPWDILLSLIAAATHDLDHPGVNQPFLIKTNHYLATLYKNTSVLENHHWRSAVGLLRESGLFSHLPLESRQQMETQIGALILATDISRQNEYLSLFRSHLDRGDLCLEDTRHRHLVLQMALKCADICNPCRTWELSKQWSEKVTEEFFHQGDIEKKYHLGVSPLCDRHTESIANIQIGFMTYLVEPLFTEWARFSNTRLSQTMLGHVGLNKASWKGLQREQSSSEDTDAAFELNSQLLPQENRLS

PDE1B (10–487) = PDE1B (10–487) (Homo sapiens, UniProt Q01064); assay: In vitro enzymatic activity assay, PDE1B
Sequence of PDE1B (10–487) (Q01064 10-487): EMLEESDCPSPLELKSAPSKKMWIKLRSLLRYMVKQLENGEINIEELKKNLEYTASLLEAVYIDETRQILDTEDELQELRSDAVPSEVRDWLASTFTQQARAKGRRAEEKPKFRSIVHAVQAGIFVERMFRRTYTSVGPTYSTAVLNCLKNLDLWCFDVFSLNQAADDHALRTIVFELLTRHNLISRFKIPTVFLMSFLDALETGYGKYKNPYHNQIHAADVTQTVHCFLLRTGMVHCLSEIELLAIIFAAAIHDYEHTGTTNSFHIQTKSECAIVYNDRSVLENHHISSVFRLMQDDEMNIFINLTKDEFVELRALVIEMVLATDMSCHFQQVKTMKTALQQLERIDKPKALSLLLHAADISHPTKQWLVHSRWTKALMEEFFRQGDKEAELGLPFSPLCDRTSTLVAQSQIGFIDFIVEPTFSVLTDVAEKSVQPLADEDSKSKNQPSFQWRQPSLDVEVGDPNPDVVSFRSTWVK

PDE8A1 (480–820) = PDE8A1 (480–820) (Homo sapiens, UniProt O60658); assay: In vitro enzymatic activity assay, PDE8A1
Sequence of PDE8A1 (480–820) (O60658 480-820): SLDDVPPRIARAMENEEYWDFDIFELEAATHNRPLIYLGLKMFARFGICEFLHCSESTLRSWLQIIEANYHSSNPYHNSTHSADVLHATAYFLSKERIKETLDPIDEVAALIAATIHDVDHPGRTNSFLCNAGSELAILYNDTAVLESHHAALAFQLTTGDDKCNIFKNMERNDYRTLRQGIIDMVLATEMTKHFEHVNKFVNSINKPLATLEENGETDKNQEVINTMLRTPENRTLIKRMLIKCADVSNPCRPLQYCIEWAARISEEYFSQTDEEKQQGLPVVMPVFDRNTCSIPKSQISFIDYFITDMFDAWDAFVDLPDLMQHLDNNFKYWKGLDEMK

PDE3A (679–1087) = PDE3A (679–1087) (Homo sapiens, UniProt Q14432); assay: In vitro enzymatic activity assay, PDE3A
Sequence of PDE3A (679–1087) (Q14432 679-1087): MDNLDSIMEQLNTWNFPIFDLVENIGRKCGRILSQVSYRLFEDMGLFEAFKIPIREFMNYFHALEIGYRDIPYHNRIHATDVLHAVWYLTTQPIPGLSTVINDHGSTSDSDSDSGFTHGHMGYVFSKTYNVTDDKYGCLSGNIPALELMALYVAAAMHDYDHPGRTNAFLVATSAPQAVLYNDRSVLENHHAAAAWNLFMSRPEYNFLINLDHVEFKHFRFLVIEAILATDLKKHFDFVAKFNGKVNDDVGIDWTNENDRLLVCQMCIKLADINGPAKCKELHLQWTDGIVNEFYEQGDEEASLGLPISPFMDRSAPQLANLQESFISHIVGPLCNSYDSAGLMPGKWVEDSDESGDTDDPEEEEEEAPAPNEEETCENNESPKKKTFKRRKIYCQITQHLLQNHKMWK

PDE5A1 (535–860) = PDE5A1 (535–860) (Homo sapiens, UniProt O76074); assay: In vitro enzymatic activity assay, PDE5A1
[10] = male, Sprague-Dawley, rat, plasma, iv, 2.5 mg/kg
[11] = male, Sprague-Dawley, rat, plasma, po, 10 mg/kg

Sequence of PDE10A (449–770) (Q9Y233 715-1036): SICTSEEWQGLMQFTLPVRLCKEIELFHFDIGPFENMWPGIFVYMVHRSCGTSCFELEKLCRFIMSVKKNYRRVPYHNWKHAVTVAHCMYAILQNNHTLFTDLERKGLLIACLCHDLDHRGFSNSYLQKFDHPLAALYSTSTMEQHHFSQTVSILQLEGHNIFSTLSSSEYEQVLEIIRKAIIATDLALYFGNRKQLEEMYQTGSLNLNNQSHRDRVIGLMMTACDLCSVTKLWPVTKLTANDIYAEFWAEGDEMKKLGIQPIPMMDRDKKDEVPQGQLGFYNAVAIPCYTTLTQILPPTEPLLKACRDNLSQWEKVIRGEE

Compound: Cc1ccc2c(c1)nc(/C=C/c1cccc3cccnc13)n2-c1ccccc1 [Compound 4, (E)-8-(2-(5-Methyl-1-phenyl-1H-benzo[d]imidazol-2-yl)vinyl)quinoline]
- enhancement of PDE10A inhibition relative to compound 2 (PDE10A (449–770); C=C bond instead of C–C single bond): 3 fold
- half-life at 1.5 μmol/L [1]: 17.4 min

Compound: COc1cccc(-n2c(/C=C/c3cccc4cccnc34)nc3cc(C)ccc32)c1 [Compound 10, (E)-8-(2-(1-(3-Methoxyphenyl)-5-methyl-1H-benzo[d]imidazole-2-yl)vinyl)quinoline]
- CLint (intrinsic body clearance) [2]: 999.4 mL/(min·g·protein)
- half-life at 0.1 μmol/L [2]: 2.1 min

Compound: Cc1ccc2c(c1)nc(/C=C/c1cccc3cccnc13)n2-c1cccc(S(=O)(=O)N2CCN(C)CC2)c1 [Compound 11, (E)-8-(2-(5-Methyl-1-(3-((4-methylpiperazin-1-yl)sulfonyl)phenyl)-1H-benzo[d]imidazole-2-yl)vinyl) quinoline]
- CLint (intrinsic body clearance) [2]: 1390 mL/(min·g·protein)
- half-life at 0.1 μmol/L [2]: 1.5 min

Compound: Cc1ccc2c(c1)nc(/C=C/c1cccc3cccnc13)n2-c1cccc(OCCCN2CCOCC2)c1.Cl [13·3HCl, (E)-4-(3-(3-(5-Methyl-2-(2-(quinolin-8-yl)vinyl)-1H-benzo[d]imidazole-1-yl)phenoxy)propyl)morpholine hydrochloride]
- CLint (intrinsic body clearance) [2]: 127.7 mL/(min·g·protein)
- half-life at 0.1 μmol/L [2]: 16 min

Compound: CN1CC(=O)N2[C@H](c3ccc4c(c3)OCO4)c3[nH]c4ccccc4c3C[C@@H]2C1=O [tadalafil, reference compound]
- mean pulmonary artery pressure (mPAP) [3]: decreased
- right ventricle hypertrophy index (RVHI%) [3]: decreased
- wall thickness percentage (WT%) [3]: decreased

Compound: Cc1ccc2c(c1)nc(/C=C/c1cccc3cccnc13)n2-c1cccc(OCCCN2CCN(C)CC2)c1.Cl [Compound 14·3HCl, (E)-8-(2-(5-Methyl-1-(3-(3-(4-methylpiperazin-1-yl)propoxy)phenyl)-1H-benzo[d]imidazole-2-yl)vinyl)quinoline hydrochloride]
- IC50 (PDE2A (580–919)): > 10 µM
- Selectivity fold (PDE2A (580–919); IC50(PDE2A)/IC50(PDE10A2)): >3500 fold
- improvement of PAH medical indicators ([3]; 14·3HCl 2.5 mg/kg p.o. compared with tadalafil 5.0 mg/kg p.o.): comparable to tadalafil; also recorded: significantly ameliorating these PAH medical indicators; also recorded: significantly improved typical disease medical indicators
- mean pulmonary artery pressure (mPAP) [3]: decreased
- right ventricle hypertrophy index (RVHI%) [3]: decreased
- wall thickness percentage (WT%) [3]: decreased
- reactivity of C=C bridge with cysteine [4]: insensitive to react with cysteine
- solubility [5]: 4700 µg/mL
- IC50 (PDE9A2 (181–506)): > 10 µM
- Selectivity fold (PDE9A2 (181–506); IC50(PDE9A2)/IC50(PDE10A2)): >3500 fold
- IC50 (PDE4D2 (86–413)): > 10 µM
- Selectivity fold (PDE4D2 (86–413); IC50(PDE4D2)/IC50(PDE10A2)): >3500 fold
- IC50 [6]: 4.5 µM
- safety margin between hERG IC50 and plasma peak concentration (Cmax) [7]: 36 fold
- selectivity over other PDE subtypes (PDE10A (449–770); against other PDE families): > 3500 fold
- AUC(0-inf) [8, 10]: 1820 ± 297 ng·h/mL
- AUC(0-t) [8, 10]: 1670 ± 184 ng·h/mL
- Cmax [8, 10]: 230 ± 50 ng/mL
- MRT last [8, 10]: 378 ± 48 min
- Tmax [8, 10]: 24 ± 24 min
- clearance [8, 10]: 23.3 mL/min/kg
- half-life [8, 10]: 402 ± 90 min
- AUC(0-inf) [8, 11]: 3550 ± 1010 ng·h/mL
- AUC(0-t) [8, 11]: 3310 ± 812 ng·h/mL
- Cmax [8, 11]: 272 ± 25 ng/mL
- MRT last [8, 11]: 504 ± 42 min
- Tmax [8, 11]: 360 ± 120 min
- half-life [8, 11]: 312 ± 54 min
- bioavailability, fold higher than A ([8]; rats, oral): ~20 fold
- selectivity ratio [9]: 1600
- acute toxicity (KM mice; oral administration): no obvious acute toxicity
- dose well tolerated (KM mice; single oral dose): ≤ 1000 mg/kg
- IC50 (PDE7A1 (130–482)): > 10 µM
- Selectivity fold (PDE7A1 (130–482); IC50(PDE7A1)/IC50(PDE10A2)): >3500 fold
- IC50 (PDE1B (10–487)): > 10 µM
- Selectivity fold (PDE1B (10–487); IC50(PDE1B)/IC50(PDE10A2)): >3500 fold
- CLint (intrinsic body clearance) [2]: 85.1 mL/(min·g·protein)
- half-life at 0.1 μmol/L [2]: 25 min
- IC50 (PDE8A1 (480–820)): > 10 µM
- Selectivity fold (PDE8A1 (480–820); IC50(PDE8A1)/IC50(PDE10A2)): >3500 fold
- IC50 (PDE3A (679–1087)): > 10 µM
- Selectivity fold (PDE3A (679–1087); IC50(PDE3A)/IC50(PDE10A2)): >3500 fold
- IC50 (PDE5A1 (535–860)): > 10 µM
- Selectivity fold (PDE5A1 (535–860); IC50(PDE5A1)/IC50(PDE10A2)): >3500 fold

Compound: Cc1ccc2c(c1)nc(/C=C/c1cccc3cccnc13)n2-c1cccc(CN2CCN(C)CC2)c1 [Compound 12, (E)-8-(2-(5-Methyl-1-(3-((4-methylpiperazin-1-yl)methyl)phenyl)-1H-benzo[d]imidazole-2-yl)vinyl) quinoline]
- CLint (intrinsic body clearance) [2]: 198.1 mL/(min·g·protein)
- half-life at 0.1 μmol/L [2]: 11 min
